Source: US20240139211A1, “METHODS AND COMPOSITIONS FOR TREATING AMYOTROPHIC LATERAL SCLEROSIS” (Amylyx Pharmaceuticals, Inc., priority 2022, published 2024)
Like-named read-outs stand apart in the source and are kept apart here.

Tests used:
OATP1B1 [1] = target: T1, OATP1B1 (Homo sapiens, UniProt Q9Y6L6); test: Substrate of OATP1B1, uptake in HEK293 cells
Source text: (§1) Vector-transfected HEK cells were used as a control.

MATE2K = MATE2K (Homo sapiens, UniProt Q86VL8); test: Inhibitor of MATE2-K, probe substrate uptake; conditions: for Inhibition of MATE2-K / Inhibitor of MATE2-K: two concentrations per test article; for potency estimated from few doses: read-out: Estimated IC50, MATE2-K
MATE2K, sequence (Q86VL8 1-566 isoform Q86VL8-3): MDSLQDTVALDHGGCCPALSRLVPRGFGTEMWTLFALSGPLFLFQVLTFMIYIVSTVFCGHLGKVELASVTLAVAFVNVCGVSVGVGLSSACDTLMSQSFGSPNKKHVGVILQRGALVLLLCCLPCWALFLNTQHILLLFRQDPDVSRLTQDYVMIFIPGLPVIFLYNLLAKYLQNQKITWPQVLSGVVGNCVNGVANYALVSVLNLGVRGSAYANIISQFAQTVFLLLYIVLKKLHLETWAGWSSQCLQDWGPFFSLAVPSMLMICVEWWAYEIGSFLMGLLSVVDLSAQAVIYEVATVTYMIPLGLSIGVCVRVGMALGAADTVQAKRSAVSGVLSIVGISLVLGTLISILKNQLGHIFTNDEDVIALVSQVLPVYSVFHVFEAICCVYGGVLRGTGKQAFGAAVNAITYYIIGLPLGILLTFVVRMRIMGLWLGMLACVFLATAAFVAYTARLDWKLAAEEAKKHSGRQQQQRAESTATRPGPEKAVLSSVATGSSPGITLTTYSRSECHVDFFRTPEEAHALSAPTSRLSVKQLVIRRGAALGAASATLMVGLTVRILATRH

BSEP [2] = target: T2, BSEP (Homo sapiens, UniProt O95342); test: Inhibitor of BSEP; conditions: for Inhibition of BSEP / Inhibitor of BSEP: two concentrations per test article
T2 sequence (O95342 whole entry): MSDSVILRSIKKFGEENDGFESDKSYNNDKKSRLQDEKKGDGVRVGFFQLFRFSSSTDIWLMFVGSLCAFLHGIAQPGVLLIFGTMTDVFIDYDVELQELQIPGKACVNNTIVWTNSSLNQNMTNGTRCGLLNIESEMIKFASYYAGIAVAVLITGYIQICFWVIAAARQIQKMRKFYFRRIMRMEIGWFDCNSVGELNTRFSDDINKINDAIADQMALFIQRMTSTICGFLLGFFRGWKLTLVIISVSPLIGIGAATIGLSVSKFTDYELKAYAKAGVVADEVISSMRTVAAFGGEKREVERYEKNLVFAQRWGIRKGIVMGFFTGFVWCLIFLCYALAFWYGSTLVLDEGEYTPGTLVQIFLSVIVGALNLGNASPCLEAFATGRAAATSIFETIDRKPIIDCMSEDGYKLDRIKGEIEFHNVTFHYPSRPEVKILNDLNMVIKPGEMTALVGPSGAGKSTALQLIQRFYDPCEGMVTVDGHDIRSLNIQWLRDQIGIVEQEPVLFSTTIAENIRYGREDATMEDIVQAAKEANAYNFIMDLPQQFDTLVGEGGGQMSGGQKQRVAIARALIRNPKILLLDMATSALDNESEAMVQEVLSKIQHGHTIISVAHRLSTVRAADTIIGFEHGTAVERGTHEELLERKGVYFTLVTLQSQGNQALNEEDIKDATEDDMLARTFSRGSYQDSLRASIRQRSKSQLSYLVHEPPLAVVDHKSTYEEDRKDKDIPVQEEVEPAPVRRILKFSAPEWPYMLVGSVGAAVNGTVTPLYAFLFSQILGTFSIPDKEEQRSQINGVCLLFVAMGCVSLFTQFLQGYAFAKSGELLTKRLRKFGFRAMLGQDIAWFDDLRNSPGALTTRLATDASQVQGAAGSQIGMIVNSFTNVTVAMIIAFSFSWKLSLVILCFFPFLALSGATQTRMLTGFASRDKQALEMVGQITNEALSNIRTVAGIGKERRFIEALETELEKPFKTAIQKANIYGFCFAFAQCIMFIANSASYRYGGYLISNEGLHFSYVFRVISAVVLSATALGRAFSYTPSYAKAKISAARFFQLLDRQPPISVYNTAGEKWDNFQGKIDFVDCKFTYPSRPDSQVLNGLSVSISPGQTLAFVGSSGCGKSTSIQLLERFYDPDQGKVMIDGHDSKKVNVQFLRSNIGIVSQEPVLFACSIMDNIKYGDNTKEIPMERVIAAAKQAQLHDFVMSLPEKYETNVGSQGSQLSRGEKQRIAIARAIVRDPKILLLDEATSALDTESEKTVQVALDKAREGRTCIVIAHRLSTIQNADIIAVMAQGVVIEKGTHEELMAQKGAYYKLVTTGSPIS

human hepatocytes = test: Cytotoxicity of six test articles in hepatocyte cultures (MTS); conditions: for Concentrations at which not hepatotoxic: Donor 1, 72±2 hours
BCRP = target: T3, BCRP (Homo sapiens, UniProt Q9UNQ0); test: Substrate of BCRP (Caco-2 cells, selective inhibitor)
T3 sequence (Q9UNQ0 1-655): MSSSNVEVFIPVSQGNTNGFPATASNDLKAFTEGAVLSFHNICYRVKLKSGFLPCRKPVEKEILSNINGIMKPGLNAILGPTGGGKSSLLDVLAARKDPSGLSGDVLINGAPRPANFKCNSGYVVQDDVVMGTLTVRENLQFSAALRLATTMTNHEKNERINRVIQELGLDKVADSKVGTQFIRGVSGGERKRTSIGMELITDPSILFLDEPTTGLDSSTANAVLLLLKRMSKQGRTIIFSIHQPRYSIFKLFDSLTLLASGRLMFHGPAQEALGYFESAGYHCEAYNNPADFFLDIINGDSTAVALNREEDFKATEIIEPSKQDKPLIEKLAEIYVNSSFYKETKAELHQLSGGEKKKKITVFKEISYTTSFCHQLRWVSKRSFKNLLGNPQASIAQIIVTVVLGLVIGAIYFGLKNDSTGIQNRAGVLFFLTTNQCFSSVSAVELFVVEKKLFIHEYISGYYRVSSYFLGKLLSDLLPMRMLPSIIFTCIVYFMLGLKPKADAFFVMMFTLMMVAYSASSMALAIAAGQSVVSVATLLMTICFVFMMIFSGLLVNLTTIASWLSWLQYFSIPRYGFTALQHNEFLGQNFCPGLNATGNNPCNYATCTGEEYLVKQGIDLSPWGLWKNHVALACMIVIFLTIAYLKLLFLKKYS

OATP1B1 [3] = target: T1, OATP1B1; test: Inhibitor of OATP1B1, probe substrate uptake; conditions: for Inhibition of OATP1B1 / Inhibitor of OATP1B1: two concentrations per test article; for potency estimated from few doses: read-out: Estimated IC50, OATP1B1
P-gp = P-gp (Homo sapiens, UniProt P08183); test: Inhibitor of P-gp, 3H-digoxin efflux in Caco-2 cells; conditions: for potency estimated from few doses: read-out: Estimated IC50, P-gp
P-gp, sequence (P08183 whole entry): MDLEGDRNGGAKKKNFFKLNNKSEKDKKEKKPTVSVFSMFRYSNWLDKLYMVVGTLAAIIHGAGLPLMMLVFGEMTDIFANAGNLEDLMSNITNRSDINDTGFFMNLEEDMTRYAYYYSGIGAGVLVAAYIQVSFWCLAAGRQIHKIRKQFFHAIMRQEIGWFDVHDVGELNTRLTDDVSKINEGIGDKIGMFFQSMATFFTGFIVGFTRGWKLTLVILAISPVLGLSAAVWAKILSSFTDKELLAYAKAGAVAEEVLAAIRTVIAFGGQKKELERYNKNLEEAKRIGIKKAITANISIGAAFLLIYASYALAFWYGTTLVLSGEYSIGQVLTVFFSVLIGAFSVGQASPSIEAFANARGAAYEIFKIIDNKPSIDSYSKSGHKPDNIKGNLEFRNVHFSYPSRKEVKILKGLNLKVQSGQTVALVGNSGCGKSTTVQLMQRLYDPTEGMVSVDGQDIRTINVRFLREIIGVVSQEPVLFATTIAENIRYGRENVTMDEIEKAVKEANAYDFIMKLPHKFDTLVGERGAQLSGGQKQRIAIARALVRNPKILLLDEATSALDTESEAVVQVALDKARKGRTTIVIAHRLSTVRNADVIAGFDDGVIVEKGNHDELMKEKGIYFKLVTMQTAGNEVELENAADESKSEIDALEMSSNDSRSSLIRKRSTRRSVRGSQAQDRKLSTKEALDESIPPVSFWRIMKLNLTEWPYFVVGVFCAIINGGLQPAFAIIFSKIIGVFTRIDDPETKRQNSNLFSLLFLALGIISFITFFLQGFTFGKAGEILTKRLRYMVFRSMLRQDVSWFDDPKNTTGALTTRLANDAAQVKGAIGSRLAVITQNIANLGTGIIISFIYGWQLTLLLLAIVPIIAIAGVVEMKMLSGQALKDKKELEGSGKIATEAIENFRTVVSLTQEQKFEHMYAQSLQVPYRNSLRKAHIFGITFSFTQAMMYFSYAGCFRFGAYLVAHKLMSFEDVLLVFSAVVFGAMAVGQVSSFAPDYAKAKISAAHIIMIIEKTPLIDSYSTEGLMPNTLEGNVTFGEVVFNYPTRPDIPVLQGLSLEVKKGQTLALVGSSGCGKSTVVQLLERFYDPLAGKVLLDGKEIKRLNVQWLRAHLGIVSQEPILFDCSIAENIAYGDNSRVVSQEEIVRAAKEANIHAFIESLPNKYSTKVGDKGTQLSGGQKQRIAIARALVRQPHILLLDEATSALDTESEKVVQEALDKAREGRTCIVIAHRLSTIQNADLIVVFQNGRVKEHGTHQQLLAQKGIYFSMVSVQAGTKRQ

BSEP [4] = target: T2, BSEP; test: Substrate of BSEP; conditions: test article 1 and 10 μM
in vitro = conditions: human, Caco-2
MATE1 = target: T4, MATE1 (Homo sapiens, UniProt Q96FL8); test: Substrate of MATE1, uptake in HEK293 cells
T4 sequence (Q96FL8 1-570): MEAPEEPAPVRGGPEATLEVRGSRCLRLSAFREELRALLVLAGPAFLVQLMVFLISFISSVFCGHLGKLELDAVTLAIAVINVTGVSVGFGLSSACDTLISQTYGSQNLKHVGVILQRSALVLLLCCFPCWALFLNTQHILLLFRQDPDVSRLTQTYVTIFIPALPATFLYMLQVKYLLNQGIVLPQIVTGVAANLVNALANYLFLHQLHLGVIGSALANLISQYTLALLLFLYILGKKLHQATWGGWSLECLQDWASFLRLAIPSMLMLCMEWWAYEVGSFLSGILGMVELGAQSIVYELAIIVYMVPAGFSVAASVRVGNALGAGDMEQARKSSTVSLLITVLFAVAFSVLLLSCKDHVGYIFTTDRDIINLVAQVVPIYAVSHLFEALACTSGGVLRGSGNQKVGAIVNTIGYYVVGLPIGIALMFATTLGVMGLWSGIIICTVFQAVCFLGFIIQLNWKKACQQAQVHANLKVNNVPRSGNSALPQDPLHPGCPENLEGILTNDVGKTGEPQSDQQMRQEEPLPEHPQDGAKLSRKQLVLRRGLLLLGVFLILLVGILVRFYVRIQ
Source text: as §1

OATP1B3 = OATP1B3 (Homo sapiens, UniProt Q9NPD5); test: Substrate of OATP1B3, uptake in HEK293 cells
OATP1B3, sequence (Q9NPD5 whole entry): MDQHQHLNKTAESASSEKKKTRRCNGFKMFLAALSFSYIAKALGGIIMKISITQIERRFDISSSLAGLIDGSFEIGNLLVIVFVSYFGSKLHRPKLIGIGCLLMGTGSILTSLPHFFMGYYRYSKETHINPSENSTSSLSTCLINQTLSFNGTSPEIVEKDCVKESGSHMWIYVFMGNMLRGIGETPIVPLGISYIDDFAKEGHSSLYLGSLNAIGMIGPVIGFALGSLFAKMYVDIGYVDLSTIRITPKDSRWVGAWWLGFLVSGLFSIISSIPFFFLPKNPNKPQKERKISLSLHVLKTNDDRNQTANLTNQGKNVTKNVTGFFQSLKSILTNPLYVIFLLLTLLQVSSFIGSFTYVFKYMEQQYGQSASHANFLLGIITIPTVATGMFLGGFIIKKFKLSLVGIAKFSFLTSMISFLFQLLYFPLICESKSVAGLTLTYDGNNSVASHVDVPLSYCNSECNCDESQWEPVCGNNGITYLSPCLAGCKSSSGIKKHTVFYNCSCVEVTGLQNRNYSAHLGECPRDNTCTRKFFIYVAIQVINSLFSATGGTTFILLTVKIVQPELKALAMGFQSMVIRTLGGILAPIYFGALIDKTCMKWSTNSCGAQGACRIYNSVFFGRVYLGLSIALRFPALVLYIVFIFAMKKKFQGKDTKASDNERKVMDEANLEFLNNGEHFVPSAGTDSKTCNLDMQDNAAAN
Source text: as §1

OAT1 = target: T5, OAT1 (Homo sapiens, UniProt Q4U2R8); test: Substrate of OAT1, uptake in HEK293 cells
T5 sequence (Q4U2R8 1-563): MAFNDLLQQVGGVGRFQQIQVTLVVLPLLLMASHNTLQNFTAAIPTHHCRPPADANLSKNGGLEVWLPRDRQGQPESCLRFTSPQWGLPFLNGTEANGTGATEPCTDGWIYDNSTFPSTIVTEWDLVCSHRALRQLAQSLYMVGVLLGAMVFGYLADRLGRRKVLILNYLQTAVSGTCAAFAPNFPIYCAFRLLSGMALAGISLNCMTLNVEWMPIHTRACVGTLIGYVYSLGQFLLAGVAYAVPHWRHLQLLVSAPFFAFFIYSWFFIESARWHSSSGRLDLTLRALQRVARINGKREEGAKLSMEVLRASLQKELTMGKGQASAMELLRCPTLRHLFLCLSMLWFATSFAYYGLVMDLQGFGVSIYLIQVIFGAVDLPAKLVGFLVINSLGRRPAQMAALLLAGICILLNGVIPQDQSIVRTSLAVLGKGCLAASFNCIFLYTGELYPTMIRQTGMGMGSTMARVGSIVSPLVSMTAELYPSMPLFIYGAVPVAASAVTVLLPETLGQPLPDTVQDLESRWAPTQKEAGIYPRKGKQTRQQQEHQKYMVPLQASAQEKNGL
Source text: as §1

[5] = test article 1 and 10 μM, Caco-2 cells
[6] = Caco-2, two concentrations per test article
[7] = estimated from two concentrations, Caco-2 cells
[8] = two concentrations per test article, Caco-2 cells
[9] = estimated from two concentrations

T1 sequence (Q9Y6L6 whole entry): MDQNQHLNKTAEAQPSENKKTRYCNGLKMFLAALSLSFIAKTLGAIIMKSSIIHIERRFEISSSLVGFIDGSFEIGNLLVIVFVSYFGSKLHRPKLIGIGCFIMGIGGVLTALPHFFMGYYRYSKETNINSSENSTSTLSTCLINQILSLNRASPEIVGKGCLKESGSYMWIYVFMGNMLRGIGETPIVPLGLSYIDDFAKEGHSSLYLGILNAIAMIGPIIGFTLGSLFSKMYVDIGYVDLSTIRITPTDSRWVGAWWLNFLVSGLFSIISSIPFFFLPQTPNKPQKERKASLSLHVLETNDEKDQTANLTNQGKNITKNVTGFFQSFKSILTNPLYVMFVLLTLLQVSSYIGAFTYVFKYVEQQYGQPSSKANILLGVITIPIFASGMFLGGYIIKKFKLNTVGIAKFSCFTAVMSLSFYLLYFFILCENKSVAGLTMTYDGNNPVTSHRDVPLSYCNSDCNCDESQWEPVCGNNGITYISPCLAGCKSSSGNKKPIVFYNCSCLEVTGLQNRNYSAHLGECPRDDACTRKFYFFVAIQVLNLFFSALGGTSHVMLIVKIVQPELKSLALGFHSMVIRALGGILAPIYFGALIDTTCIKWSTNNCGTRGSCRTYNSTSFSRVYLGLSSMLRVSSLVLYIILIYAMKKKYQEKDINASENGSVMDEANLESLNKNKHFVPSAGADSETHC

Molecule | Inhibition of MATE2-K (MATE2K) | Inhibitor of MATE2-K (MATE2K) | Inhibition of BSEP (BSEP [2]) | Inhibitor of BSEP (BSEP [2]) | Concentrations at which not hepatotoxic (human hepatocytes) [µM] | Substrate of BCRP (BCRP; Caco-2, 1 and 10 μM) | Substrate of BCRP (BCRP; [5]) | Inhibition of OATP1B1 (OATP1B1 [3]) | Inhibitor of OATP1B1 (OATP1B1 [3]) | Inhibitor of P-gp (P-gp; [6]) | potency estimated from few doses (P-gp; [7]) [µM] | Inhibitor of P-gp (P-gp; [8]) | Substrate of BSEP (BSEP [4]) | Papp A→B (in vitro) [×10⁻⁶ cm/s] | Papp B→A (in vitro) [×10⁻⁶ cm/s] | Remaining P-gp activity, % of the control (P-gp; higher test concentration) [%] | Remaining P-gp activity, % of the control (P-gp; lower test concentration) [%] | other results
C[C@H](CCC(=O)NCC(=O)O)[C@H]1CC[C@H]2[C@@H]3[C@@H](O)C[C@@H]4C[C@H](O)CC[C@]4(C)[C@H]3CC[C@]12C [Glycoursodeoxycholic acid, glycoursodeoxycholic acid] | did not inhibit | No | inhibited | Yes | ≤ 100 | as a substrate | Yes | inhibited | Yes | identified as an inhibitor | < 10 | Yes | Yes | ≥ 2.4 | ≥ 6.84 |  |  | Fold uptake by OATP1B1 over vector control (OATP1B1 [1]; human, 5 min, 10 μM): 7.56 fold; Fold uptake by OATP1B1 over vector control with known inhibitors (OATP1B1 [1]; human, 5 min, 10 μM): 1.80 fold; potency estimated from few doses (BSEP [2]; human): < 10 µM; Efflux remaining with Ko143 (BCRP; Caco-2): < 18.8%; Uptake activity remaining, OATP1B1 (OATP1B1 [3]; 10 μM): 50.4%; Uptake activity remaining, OATP1B1 (OATP1B1 [3]; 100 μM): 1.68%; efflux ratio at 1 μM (in vitro): 1.86; efflux ratio at 10 μM (in vitro): 2.85; recovery (in vitro): ≥ 75%
O=C(O)CCCc1ccccc1 [PB, sodium phenylbutyrate] | did not inhibit | No | did not inhibit | No | ≤ 250 | not a substrate | No | did not inhibit | No | not an inhibitor |  | No | No | ≤ 28.9 | 254 | 106 | 93.5 | 
ursodeoxycholic acid | inhibited | Yes |  |  | ≤ 250 | not a substrate | No | inhibited | Yes | identified as an inhibitor | < 500 | Yes^a |  |  |  | 13.0 | 348 | Substrate of OATP1B1 (OATP1B1 [1]; 1 and 10 μM): not a substrate; Substrate of OATP1B1 (OATP1B1 [1]; test article 1 and 10 μM): No; potency estimated from few doses (MATE2K; [9]): > 500 µM; potency estimated from few doses (MATE2K; estimated from two doses): > 500 µM; Substrate of MATE1 (MATE1; 1 and 10 μM): not a substrate; Substrate of MATE1 (MATE1; test article 1 and 10 μM): No; Effect on cell viability (human hepatocytes; Donor 1, 500 μM): affected cell viability; Uptake activity remaining, OATP1B1 (OATP1B1 [3]; 50 μM): 545.1%; Uptake activity remaining, OATP1B1 (OATP1B1 [3]; 500 μM): no uptake activity remaining; potency estimated from few doses (OATP1B1 [3]; [9]): < 50 µM; potency estimated from few doses (OATP1B1 [3]; estimated from two doses): < 50 µM; Substrate of OATP1B3 (OATP1B3; 1 and 10 μM): not a substrate; Substrate of OATP1B3 (OATP1B3; test article 1 and 10 μM): No; Substrate of OAT1 (OAT1; 1 and 10 μM): not a substrate; Substrate of OAT1 (OAT1; test article 1 and 10 μM): No; potency estimated from few doses (P-gp; Caco-2, estimated from two doses): < 500 µM
